Blank lines part the entries; values can stand above or below the molecule they belong to.
Legend:
CDK2 = molecular target: T1, CDK2 (Homo sapiens, UniProt P24941); experiment: Z'-LYTE kinase assay; assay type: biochemical; details: three separate experiments ± SD
T1 construct: purchased Invitrogen/Life Technologies
Description: (§1) The Z’-LYTE® technology, which relies on FRET (Fluorescence Resonance Energy Transfer) from Invitrogen/Life Technologies, was employed for this evaluation for all kinases except VEGFR-2. The VEGFR-2 kinase assay was conducted in a 96-well streptavidin-coated plate using a recombinant human VEGFR-2/KDR ELISA kit, following the manufacturer’s instructions. […] Statistical significance was assessed using one-way analysis of variance (ANOVA), followed by the Dunnett test; data are represented as means ± SD.

FLT3 = molecular target: T2, FLT3 (Homo sapiens, UniProt P36888); experiment: Z'-LYTE kinase assay; assay type: biochemical; details: three separate experiments ± SD
T2 construct: purchased Invitrogen/Life Technologies
T2 sequence (P36888 27-993): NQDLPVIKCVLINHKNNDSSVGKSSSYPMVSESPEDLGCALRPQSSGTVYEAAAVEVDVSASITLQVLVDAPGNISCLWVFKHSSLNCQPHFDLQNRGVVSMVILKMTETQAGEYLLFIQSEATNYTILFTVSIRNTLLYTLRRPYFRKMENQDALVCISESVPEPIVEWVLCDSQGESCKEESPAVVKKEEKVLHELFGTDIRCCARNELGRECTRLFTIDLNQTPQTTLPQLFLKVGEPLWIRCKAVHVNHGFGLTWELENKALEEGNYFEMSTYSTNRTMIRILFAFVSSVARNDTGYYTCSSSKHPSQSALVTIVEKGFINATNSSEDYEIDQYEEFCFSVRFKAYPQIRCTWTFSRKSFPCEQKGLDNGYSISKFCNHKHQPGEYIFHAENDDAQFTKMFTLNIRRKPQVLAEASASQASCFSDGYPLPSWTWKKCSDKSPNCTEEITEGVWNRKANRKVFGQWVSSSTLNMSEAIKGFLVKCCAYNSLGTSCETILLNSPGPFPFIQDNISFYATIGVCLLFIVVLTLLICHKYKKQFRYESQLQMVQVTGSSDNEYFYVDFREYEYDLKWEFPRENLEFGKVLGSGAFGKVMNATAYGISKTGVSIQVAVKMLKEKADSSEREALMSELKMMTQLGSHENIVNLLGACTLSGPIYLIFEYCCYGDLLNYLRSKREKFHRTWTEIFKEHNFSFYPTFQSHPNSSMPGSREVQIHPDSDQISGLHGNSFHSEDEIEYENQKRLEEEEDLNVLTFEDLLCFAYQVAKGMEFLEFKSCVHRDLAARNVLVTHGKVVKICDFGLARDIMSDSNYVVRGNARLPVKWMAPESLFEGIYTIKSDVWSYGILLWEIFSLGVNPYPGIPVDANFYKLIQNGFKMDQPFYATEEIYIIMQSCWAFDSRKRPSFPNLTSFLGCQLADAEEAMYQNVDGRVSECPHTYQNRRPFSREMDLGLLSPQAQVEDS
Description: as §1

CDK4 = system: CDK4; set-up: method as in PMID 29357250; details: cited from earlier work
CDK6 = system: CDK6; set-up: method as in PMID 29357250; details: cited from earlier work
MV4-11 cell xenografts = system: MV4-11 cell xenografts; set-up: method as in PMID 29357250; details: cited from earlier work
FLT3 kinase = molecular target: FLT3 kinase; set-up: method as in PMID 36403191, PMID 37446914; details: cited from earlier work
[1] = system: FLT3 ITD-mutated MV4-11 AML cells; set-up: method as in PMID 36403191, PMID 37446914; details: after 72 h; cited from earlier work
[2] = system: MCF-7 breast cancer cell line; set-up: method as in PMID 36844536; details: cited from earlier work
[3] = system: MCF-12A normal breast cell line; set-up: method as in PMID 36844536; details: cited from earlier work

IC50 (CDK2): 1.99 ± 0.12 nM | IC50 (FLT3): 0.79 ± 0.08 nM
Compound: CN1CCN(Cc2ccc(NC(=O)c3n[nH]cc3Nc3ncnc4[nH]ccc34)cc2)CC1 [FN-1501, 4-((7H-Pyrrolo[2,3-d]pyrimidin-4-yl)amino)-N-(4-((4-methylpiperazin-1-yl)methyl)phenyl)-1H-pyrazole-3-carboxamide]
IC50 (CDK4): 0.85 nM | IC50 (CDK6): 1.96 nM | effectiveness in treating leukemia in mouse models (MV4-11 cell xenografts): remarkable effectiveness

Compound: COc1cc(C=C2C(=O)Nc3ccccc32)ccc1O [III]
IC50 (FLT3 kinase): 2490 nM | IC50 [1]: 4300 nM

Compound: COc1cc(C=C2C(=O)Nc3ccc(Cl)cc32)ccc1OCc1ccccn1 [IV]
IC50 [2]: 17000 nM | impact on the MCF-12A normal breast cell line [3]: no impact
